Results on one compound are retold here after patent US20260364030A1, “NOVEL SELECTIVE INHIBITORS OF LYSYL OXIDASES” (Syntara Limited, priority 2022, published 2026).

SMILES strings stand for the structures. Where only a bound is given, the exact number is not on record here.

One data set deals with T1, LOXL2 (Homo sapiens, UniProt Q9Y4K0).
T1 sequence (Q9Y4K0 26-774): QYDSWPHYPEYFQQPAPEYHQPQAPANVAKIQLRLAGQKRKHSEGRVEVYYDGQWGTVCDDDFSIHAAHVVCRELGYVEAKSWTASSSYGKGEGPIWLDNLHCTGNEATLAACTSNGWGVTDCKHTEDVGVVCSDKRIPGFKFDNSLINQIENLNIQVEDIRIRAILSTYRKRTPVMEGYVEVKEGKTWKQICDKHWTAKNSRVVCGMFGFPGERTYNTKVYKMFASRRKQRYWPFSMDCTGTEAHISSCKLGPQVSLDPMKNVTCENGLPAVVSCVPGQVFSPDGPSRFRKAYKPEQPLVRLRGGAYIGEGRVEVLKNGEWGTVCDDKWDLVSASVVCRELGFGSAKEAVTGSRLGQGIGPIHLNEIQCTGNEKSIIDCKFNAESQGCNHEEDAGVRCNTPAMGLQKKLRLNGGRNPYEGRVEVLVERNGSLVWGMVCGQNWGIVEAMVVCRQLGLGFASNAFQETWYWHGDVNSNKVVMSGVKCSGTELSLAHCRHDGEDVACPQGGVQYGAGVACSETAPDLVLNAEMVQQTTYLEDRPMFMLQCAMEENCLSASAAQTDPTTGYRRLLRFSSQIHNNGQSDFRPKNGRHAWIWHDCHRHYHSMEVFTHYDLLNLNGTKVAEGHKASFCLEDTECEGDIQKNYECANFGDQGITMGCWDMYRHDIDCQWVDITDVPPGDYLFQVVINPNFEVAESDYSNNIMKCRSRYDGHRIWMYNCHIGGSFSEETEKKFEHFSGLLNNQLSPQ
Kind of data set: Time-dependent inhibition of LOXL2, Amplex Red oxidation assay. The data set is classed as biochemical. Particulars: for IC50: 37 °C. Here is the method: The time dependent inhibitory effects of the Compound 1 of the present invention were tested against the given LOXL1 preparation and LOXL2 preparation using a method based on the detection of hydrogen peroxide with an Amplex Red oxidation assay [Zhou et al. 1997]. The assay was developed for use in either 384 or 96 well format. Briefly, in a standard black, clear bottom 384 well plate assay 25 µL of a dilution of any of the isoenzymes and orthologues in 1.2 M urea, 50 mM sodium borate buffer (pH 8.2) were added into each well in the presence of […] and 0.5 mM pargyline (to inhibit SSAO and MAO-B and MAO-A, respectively; not necessary if the enzyme is from a recombinant or purified form). Test compound (Compound 1) was dissolved in DMSO and tested in a Concentration Response Curve (CRC) with 11 data points, typically in the micromolar or nanomolar range after incubation with the enzyme for different time points at 37 °C. 25 μL of a reaction mixture containing twice the KM concentration of putrescine (Sigma Aldrich, e.g. 20 mM for LOXL1 or 10 mM for LOXL2), 120 µM Amplex Red (Thermo Fisher Scientific) and 1.5 U/mL horseradish peroxidase (Sigma Aldrich) prepared in 1.2 M urea, 50 mM sodium borate buffer (pH 8.2) were then added to the corresponding wells. The fluorescence (RFU) was read every 2.5 min for 30 min at 37 °C, excitation 544 nm and emission 590 nm (Optima; BMG labtech). The slope/min of the kinetics for each well was calculated using MARS data analysis software (BMG labtech) and this value was used to deduce the IC50 value (Dotmatics).

Data set [1] deals with T2, Human recombinant SSAO/VAP-1 (Homo sapiens, UniProt Q16853).
T2 construct: a cloned cDNA template corresponding to residues 34-763 of human SSAO/VAP-1; TEV cleavage site (N); made in house; host or cells: CHO-K1 glycosylation mutant cell line, Lee 8 (vector assembled by Geneart AG)
T2 sequence (Q16853 34-763): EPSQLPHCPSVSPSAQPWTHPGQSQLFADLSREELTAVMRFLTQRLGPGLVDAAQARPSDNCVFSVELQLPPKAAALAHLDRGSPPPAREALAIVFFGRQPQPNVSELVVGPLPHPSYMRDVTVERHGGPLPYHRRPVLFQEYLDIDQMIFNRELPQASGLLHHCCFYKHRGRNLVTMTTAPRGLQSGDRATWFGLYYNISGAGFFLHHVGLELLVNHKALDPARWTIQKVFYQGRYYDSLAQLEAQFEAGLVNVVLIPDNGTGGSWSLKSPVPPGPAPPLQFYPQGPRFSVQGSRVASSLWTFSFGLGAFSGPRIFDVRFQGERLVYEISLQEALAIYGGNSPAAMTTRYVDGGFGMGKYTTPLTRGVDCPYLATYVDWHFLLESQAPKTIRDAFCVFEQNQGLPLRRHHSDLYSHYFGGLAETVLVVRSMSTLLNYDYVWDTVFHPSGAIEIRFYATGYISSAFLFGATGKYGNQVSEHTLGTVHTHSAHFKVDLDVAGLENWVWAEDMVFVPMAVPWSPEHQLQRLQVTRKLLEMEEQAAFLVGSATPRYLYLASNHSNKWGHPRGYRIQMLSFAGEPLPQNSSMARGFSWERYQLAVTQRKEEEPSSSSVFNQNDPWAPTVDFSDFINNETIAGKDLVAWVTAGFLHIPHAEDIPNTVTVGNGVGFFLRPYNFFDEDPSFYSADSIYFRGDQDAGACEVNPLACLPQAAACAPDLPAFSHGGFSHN
The data set can be described thus: Inhibition of human recombinant SSAO/VAP-1, fluorescent Amplex Red assay. The data set is classed as biochemical. Particulars: 30 min incubation at 37 °C; benzylamine 600 μM in reaction mixture. Here is the method:
Human recombinant SSAO/VAP-1 amine oxidase activity was determined using the coupled colorimetric method as described for monoamine oxidase, copper-containing amine oxidases and related enzymes [Holt A. and Palcic M., 2006]. Briefly, a cloned cDNA template corresponding to residues 34-763 of human SSAO/VAP-1, and incorporating a mouse Ig kappa (κ) signal sequence, N-terminal flag epitope tag and tobacco etch virus (TEV) cleavage site, was assembled in a mammalian expression vector (pLO-CMV) by Geneart AG. This vector containing human SSAO/VAP-1 residues was transfected into CHO-K1 glycosylation mutant cell line, Lee 8. A clone stably expressing human SSAO/VAP-1 was isolated and cultured in large scale. Active human SSAO/VAP-1 was purified and recovered using immunoaffinity chromatography. This was used as the source for SSAO/VAP-1 activity. A high-throughput fluorescent assay was developed using either 96 or 384 well format. Briefly, in a standard 384 well plate assay 25 μL of purified human SSAO/VAP-1 (0.25 μg/mL) in 0.1 M sodium phophate buffer (pH 7.4) was added into each well. […] The fluorescence unit (RFU) was read every 2.5 min for 30 min at 37 °C excitation 544 nm and emission 590 (Optima; BMG labtech). The slope/min of the kinetics for each well was calculated using MARS data analysis software (BMG labtech) and this value was used to deduce the IC50 value (Dotmatics).

Data set [2] can be described thus: Stability in topical formulation (purity profile at room temperature). The data set is classed as physicochemical. Particulars: for % Purity of Compound 1 in topical formulation: 1% Compound 1.

As a reminder, the IC50 is the concentration that inhibits the measured activity by half. Take `NC/C(=C\F)CS(=O)(=O)c1ccccc1` [Compound 1, (E)-3-fluoro-2-((phenylsulfonyl)methyl)prop-2-en-1-amine]: the IC50 at LOXL2 (0′ incubation) was 14700 nM; against LOXL2 (15′ incubation) it was 5580 nM; at LOXL2 (30′ incubation) it was 1710 nM; at LOXL2 (1 h incubation) it was 890 nM; against LOXL2 (2 h incubation), 410 nM; at LOXL2 (4 h incubation) it was 310 nM. For the same compound, the IC50 in data set [1] is > 30000 nM. In addition, at LOXL2 (apparent potency increasing with time), the “Time dependent LOXL2 inhibition” value is “time dependent LOXL1 and LOXL2 inhibition”. For the same compound, the “% Purity of Compound 1 in topical formulation” value stood at 99.81% in data set [2] (room temperature, t = 3 months, 129600 min); 99.82% in data set [2] (room temperature, t = 6 months, 259200 min); 99.79% in data set [2] (room temperature, t = 9 months, 388800 min); 99.83% in data set [2] (t = 0). In addition, the “Compound peak percentage in topical formulation” value in data set [2] (topical formulation 1, at all tested time points) is “above 99.5%”.
